In article PMC11459967 (Antimicrobial Agents and Chemotherapy, 2024):
Like-named read-outs stand apart in the source and are kept apart here.

What was measured:
cathepsin B = molecular target: T1, cathepsin B (Homo sapiens, UniProt P07858); experiment: Cathepsin B enzymatic assay; assay type: biochemical
T1 construct: purchased RD Systems 953-CY-010
Method: Assays contained 0.6 nM cathepsin B (RD Systems: 953-CY-010), 25 µM Z-LR-AMC, and 100 nL of test compound in 100% DMSO in a total of 10 µL of 50 mM MES, pH 5.0, 150 mM NaCl, 0.05% CHAPS, and 5 mM DTT in black low volume 384-well plates. The production of AMC was followed at 5-min intervals at 355 nm excitation and 460 nm emission in an Envision microplate reader (PerkinElmer). Reaction rates were determined by linear regression of the resulting progress curves. Rates were normalized to percent inhibition, where 0% is equal to the rate in the presence enzyme, and 100% is equal to the rate in the absence of enzyme. Nonlinear regression fits of the data to a one-site dose-response curve were performed using XLFit (IDBS).

cathepsin L = molecular target: T2, cathepsin L (Homo sapiens, UniProt P07711); experiment: Cathepsin L enzymatic assay; assay type: biochemical
T2 construct: purchased RD Systems 952-CY-010
Method: The assays contained 25 pM cathepsin L (RD Systems: 952-CY-010), 5 µM LR-AMC, 100 nL of test compound in 100% DMSO, in a total of 10 µL of 20 mM potassium phosphate, pH 6.0, 150 mM NaCl, 0.005% Tween20, and 5 mM DTT in black low volume 384-well plates. The production of AMC was followed at 5-min intervals with excitation at 355 nm and emission at 460 nm using an Envision microplate reader (PerkinElmer). Reaction rates were determined by linear regression of the resulting progress curves. […] Nonlinear regression fits of the data to a one-site dose-response curve were performed using XLFit (IDBS).

thrombin = molecular target: T3, thrombin (Homo sapiens, UniProt P00734); experiment: Thrombin enzymatic assay; assay type: biochemical
T3 construct: purchased RD Systems 1473-SE-010
Method: Assays contained 25 pM thrombin (RD Systems: 1473-SE-010), 25 µM BOC-PVR-AMC, and 100 nL of test compound in 100% DMSO, in a total of 10 µL of 50 mM Tris, pH 7.0, 100 mM NaCl, 10 mM CaCl2, and 0.005% Tween20 in black low volume 384-well plates. The production of AMC was followed at 5-min intervals at 355 nm excitation and 460 nm emission in an Envision microplate reader (PerkinElmer). Reaction rates were determined by linear regression of the resulting progress curves. […] Nonlinear regression fits of the data to a one-site dose-response curve were performed using XLFit (IDBS).

SARS-CoV-2 WT (WA1/2020) = experiment: Live virus high-content imaging assay (nucleocapsid expression), WT; assay type: cell-based; settings: Severe acute respiratory syndrome coronavirus 2, Vero C1008, Vero-E6 cells, 48 h infection, read-out: EC50 viral high-content imaging assay
[1] = system: SARS-CoV-2 Beta (B.1.351); experiment: microbe, parasite or virus in culture; assay type: cell-based; settings: Severe acute respiratory syndrome coronavirus 2, Vero C1008, 48 h; read-out: EC50 viral high-content imaging assay
[2] = system: SARS-CoV-2 Delta (B.1.617); experiment: microbe, parasite or virus in culture; assay type: cell-based; settings: Severe acute respiratory syndrome coronavirus 2, Vero C1008, 48 h; read-out: EC50 viral high-content imaging assay
[3] = system: SARS-CoV-2 Omicron (B.1.1.529); experiment: microbe, parasite or virus in culture; assay type: cell-based; settings: Severe acute respiratory syndrome coronavirus 2, Vero C1008, 48 h; read-out: EC50 viral high-content imaging assay
[4] = Mouse liver microsome stability assay; settings: microsomes
Method: Test compounds (0.5 µM) were incubated with liver microsomes ([…]) and an NADPH-regenerating system (cofactor solution), and samples were taken at various time points, quenched with an acetonitrile solution containing an internal standard, and then analyzed by liquid chromatography with tandem mass spectrometry (LC-MS/MS). […] For the 0-min time point, 135 µL of acetonitrile (ACN) containing internal standard (IS) was added to the wells of a 0-min plate, followed by the addition of 15 µL of NADPH stock solution (6 mM). All other plates were pre-incubated at 37°C for 5 min. Fifteen microliters of NADPH stock solution (6 mM) was then added to the plates to start the reaction and timing. […] Fifty microliters of supernatant was then transferred from each well into a 96-well sample plate containing 50 µL of ultra-pure water for LC/MS analysis.

[5] = Hamster pharmacokinetics (plasma and lung); assay type: in vivo
Method: Fig 10 […] pharmacokinetics of 1. Mean plasma and lung concentration-time profiles of compound 1 after single i.p. dose at 10 mg/kg in male hamster (N = 3/time point). In-life parameters of compound 1 are provided for plasma and lung.
To monitor pharmacokinetics of compound 1 following single intraperitoneal administration to male hamsters, compound 1 was prepared prior to use in 10% DMSO, 10% Solutol HS 15, plus 80% PBS in a concentration of 2 mg/mL by weighing 19.65 mg of compound 1 into a new vial and then adding 0.982 mL DMSO into the vial containing the compound and vortexing the vial for 2 min. In addition, 0.982 mL Solutol HS 15 was then added into the vial containing the compound, and the vial was vortexed for 2 min. Also, 7.860 mL of PBS was then added into the vial which was further vortexed for 3 min and sonicated for 0.5 min. Male hamsters weighing 89 g–104 g (N = 18) were purchased from Beijing Weitong Lihua Laboratory Animal Co. Ltd. Hamsters were fasted overnight and fed at 4 h post-dosing. The compound was administered 10 mg/kg (5 mL/kg) via intraperitoneal injection. Sampling was done at 0.25, 0.5, 1, 2, 4, and 6 h post dose, six time points, by terminal bleeding for plasma and lung at each time point. Approximately 150 µL blood/time point was collected into the K2EDTA tube via the jugular vein. The blood sample was put on wet ice and centrifuged to obtain a plasma sample (2,000 g, 5 min under 4°C) within 15 min. Lung collection was performed by making a mid-line incision in the animals’ chest and abdomen, the skin was retracted, and the lung was exposed after cutting off the ribs and removing other organs using surgical scissors and forceps. The lung was removed using surgical scissors and then rinsed with cold saline. The lung was placed in screw-top tubes and then stored under −70°C until analysis. Lung tissue was homogenized for 2 min with two volumes (vol/wt) of PBS (pH 7.4) immediately before analysis by LC-MS/MS.

[6] = system: SARS-CoV-2 (B.1.1.529/Omicron); settings: for mean reduction in SARS-CoV-2 genomic RNA (E gene) in lung tissue: 1 at 100 mg/kg, PF-332 at 50 mg/kg i.p. b.i.d.
SARS-CoV-2 Mpro = SARS-CoV-2 Mpro (Severe acute respiratory syndrome coronavirus 2, UniProt P0DTC1); experiment: biochemical; assay type: biochemical; settings: Mpro enzymatic assay
[7] = enzyme assay, at least 10-point dose-response curves in duplicate, read-out: CatB IC50
[8] = enzyme assay, at least 10-point dose-response curves in duplicate, read-out: CatL IC50
[9] = enzyme assay, at least 10-point dose-response curves in duplicate, read-out: Thrombin IC50
[10] = single IP dose at 10 mg/kg in male hamster
[11] = single i.p. dose at 10 mg/kg in male hamster

T2 sequence (P07711 114-333): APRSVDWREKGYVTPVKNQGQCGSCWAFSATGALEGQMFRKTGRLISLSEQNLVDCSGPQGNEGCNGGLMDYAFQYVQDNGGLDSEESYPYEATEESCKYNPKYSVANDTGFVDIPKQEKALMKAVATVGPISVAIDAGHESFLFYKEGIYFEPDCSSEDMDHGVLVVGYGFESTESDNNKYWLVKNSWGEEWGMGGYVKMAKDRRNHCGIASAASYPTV

O=C(CN1C(=O)C(NC(=O)OCc2ccccc2)COc2ccccc21)NC(CC1CCNC1=O)C(=O)COC(=O)c1c(Cl)cccc1Cl (centres unmarked) [Compound 1]
IC50 (cathepsin B; as stated in text: no substantial inhibition, read-out: cathepsin B IC50): > 15000 nM | IC50 (cathepsin B; [7]): 18000 nM | IC50 (cathepsin L; as stated in text: no substantial inhibition, read-out: cathepsin L IC50): > 15000 nM | IC50 (cathepsin L; [8]): > 32000 nM | IC50 (thrombin; [9]): > 32000 nM | EC50 (SARS-CoV-2 WT (WA1/2020)): 2100 ± 2100 nM | EC50 [1]: 3100 nM | EC50 [2]: 3000 ± 2400 nM | EC50 [3]: 900 ± 900 nM | half-life at 0.5 µM [4]: < 2 min | Kp ([5]; lung / plasma, single IP dose at 10 mg/kg in male hamster, read-out: AUClung/AUCplasma): 3.2 | half-life ([5]; lung, single IP dose at 10 mg/kg in male hamster, read-out: lung T1/2 (converted)): 48.6 min | Tmax ([5]; lung, single IP dose at 10 mg/kg in male hamster, read-out: lung Tmax): 30 min | Cmax ([5]; plasma, single IP dose at 10 mg/kg in male hamster): 990 ng/mL | AUC(0-inf) ([5]; plasma, single IP dose at 10 mg/kg in male hamster, read-out: plasma AUCINF): 1830 ng·h/mL | AUC(0-t) ([5]; plasma, single IP dose at 10 mg/kg in male hamster, read-out: plasma AUClast): 1820 ng·h/mL | half-life ([5]; plasma, single IP dose at 10 mg/kg in male hamster, read-out: plasma T1/2 (converted)): 44 min | Tmax ([5]; plasma, single IP dose at 10 mg/kg in male hamster, read-out: plasma Tmax): 15 min | lung AUCINF [5, 10]: 5854 ng·h/g | lung AUClast [5, 10]: 5818 ng·h/g | lung Cmax [5, 10]: 3623 ng/g | clinical symptoms during the in-life phase [5, 11]: no abnormal clinical symptoms observed | concentration achieved in the lung [5, 11]: about 8 µM | mean reduction in SARS-CoV-2 sub-genomic RNA (N gene) in lung tissue ([6]; […], 100 mg/kg i.p. b.i.d., versus vehicle, P = 0.002): 2.0 log | mean reduction in SARS-CoV-2 genomic RNA (E gene) in lung tissue ([6]; […], versus vehicle): 0.5 log | lung histopathology scores (H&E) compared to vehicle-treated SGH ([6]; hamster, in vivo): did not observe any significant difference | reduction in SARS-CoV-2 viral titer from lung tissue ([6]; hamster, in vivo): 32.6% | toxicities or behavioral abnormalities during dosing ([6]; hamster, in vivo): no obvious toxicities or behavioral abnormalities

N[C@H]1COc2ccccc2N(CC(=O)N[C@@H](C[C@@H]2CCNC2=O)C(=O)COC(=O)c2c(Cl)cccc2Cl)C1=O [Compound 9]
half-life at 0.5 µM ([4]; mouse): < 2 min

COc1cccc2[nH]c(C(=O)N[C@@H](CC(C)C)C(=O)N[C@@H](C[C@@H]3CCNC3=O)C(=O)COC(=O)c3c(Cl)cccc3Cl)cc12 [Compound 18, reference compound]
time to achieve maximum inhibition (SARS-CoV-2 Mpro): ≤ 10 min | IC50 (cathepsin B; [7]): 24 ± 7.5 nM | IC50 (cathepsin L; [8]): 1.8 nM | half-life at 0.5 µM [4]: < 2 min

O=C(CN1C(=O)[C@@H](NC(=O)c2ccccc2)COc2ccccc21)N[C@@H](C[C@@H]1CCNC1=O)C(=O)COC(=O)c1c(Cl)cccc1Cl [Compound 19]
IC50 (cathepsin B; [7]): 13000 nM | half-life at 0.5 µM [4]: < 2 min

O=C(CN1C(=O)[C@@H](NC(=O)c2ccc3ccccc3n2)COc2ccccc21)N[C@@H](C[C@@H]1CCNC1=O)C(=O)COC(=O)c1c(Cl)cccc1Cl [Compound 20]
IC50 (cathepsin B; [7]): 1800 nM | IC50 (cathepsin L; [8]): 23100 nM | IC50 (thrombin; [9]): > 32000 nM | half-life at 0.5 µM [4]: < 2 min

O=C(CN1C(=O)[C@@H](NC(=O)OCc2ccccc2)COc2ccccc21)N[C@@H](C[C@@H]1CCNC1=O)C(=O)COc1cc(C(F)(F)F)nn1-c1ccc(F)cc1 [Compound 21]
IC50 (cathepsin B; [7]): 27000 nM | IC50 (cathepsin L; [8]): > 32000 nM | IC50 (thrombin; [9]): > 32000 nM

CC(C)C[C@H](NC(=O)OCc1ccccc1)C(=O)N[C@@H](C[C@@H]1CCNC1=O)C(O)S(=O)(=O)O (some centres unmarked) [GC-376, reference compound]
IC50 (cathepsin B): 37 ± 15 nM | IC50 (cathepsin L): 0.05 nM | IC50 (thrombin): > 10000 nM | EC50 (SARS-CoV-2 WT (WA1/2020)): 300 ± 500 nM | EC50 [2]: 600 nM | EC50 [3]: 400 ± 500 nM

CC(C)(C)[C@H](NC(=O)C(F)(F)F)C(=O)N1C[C@H]2[C@@H]([C@H]1C(=O)N[C@H](C#N)C[C@@H]1CCNC1=O)C2(C)C [nirmatrelvir, reference compound]
reduction in N sub-genomic RNA in lung tissue ([6]; […], 50 mg/kg i.p. b.i.d., versus vehicle): 5.2 fold | mean reduction in SARS-CoV-2 genomic RNA (E gene) in lung tissue ([6]; […], versus vehicle): 3.0 log
